Reference: patent publication US9133181B2, “Substituted 6-(4-hydroxy-phenyl)-1H-pyrazolo[3,4-b]pyridine derivatives as kinase inhibitors” (SANOFI, priority 2012, dated 2015)

Target: T1, human full-length recombinant PKC βII (Homo sapiens, UniProt P05771)
T1 construct: Active human full-length recombinant PKC βII; purchased Invitrogen GmbH, Darmstadt, Germany
Experiment: Determination of PKC βII inhibition (Caliper mobility shift kinase assay)
Format: biochemical
Conditions: final compound concentration 1.14 μM (±0.15 μM); 60 min incubation at 32° C.
Method in brief: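 Compound was tested at a final 1.14 µM (±0.15 µM), with % inhibition derived from the product/(substrate+product) peak ratio on a Caliper mobility-shift read-out. Full-length PKC βII was activated by CaCl2, PS and DAG in pH 7.4 Hepes/MgCl2. Peptide and ATP were at 3 µM and 120 µM in the added mix. Incubation was 60 min at 32 °C.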

T1 sequence (P05771 1-673 isoform P05771-2): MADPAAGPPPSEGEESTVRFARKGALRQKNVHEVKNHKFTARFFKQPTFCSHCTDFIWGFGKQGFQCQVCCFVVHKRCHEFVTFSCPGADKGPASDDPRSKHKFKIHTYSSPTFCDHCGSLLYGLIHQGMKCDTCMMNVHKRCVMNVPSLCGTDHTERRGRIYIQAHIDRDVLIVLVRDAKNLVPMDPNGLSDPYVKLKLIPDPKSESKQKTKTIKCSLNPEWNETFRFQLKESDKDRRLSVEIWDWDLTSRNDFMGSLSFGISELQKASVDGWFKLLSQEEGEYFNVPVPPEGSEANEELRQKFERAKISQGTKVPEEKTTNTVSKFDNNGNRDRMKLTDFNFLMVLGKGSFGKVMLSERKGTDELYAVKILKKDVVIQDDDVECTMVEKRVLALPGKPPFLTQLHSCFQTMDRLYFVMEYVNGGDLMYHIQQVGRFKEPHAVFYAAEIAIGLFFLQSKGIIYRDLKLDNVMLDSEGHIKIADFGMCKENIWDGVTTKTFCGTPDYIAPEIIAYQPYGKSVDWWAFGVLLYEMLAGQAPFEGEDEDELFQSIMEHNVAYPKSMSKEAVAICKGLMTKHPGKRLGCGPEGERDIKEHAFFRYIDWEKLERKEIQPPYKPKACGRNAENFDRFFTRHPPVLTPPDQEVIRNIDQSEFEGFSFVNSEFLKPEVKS

Compared with `COCC(=O)N1CCCN(Cc2cc(-c3ccc(O)cc3F)nc3[nH]nc(C)c23)CC1C` (centres unmarked) [Example 79, 1-{4-[6-(2-Fluoro-4-hydroxy-phenyl)-3-methyl-1H-pyrazolo[3,4-b]pyridin-4-ylmethyl]-2-methyl-[1,4]diazepan-1-yl}-2-methoxy-ethanone], `Cc1n[nH]c2nc(-c3ccc(O)cc3F)cc(CN3CCC[C@](C)(N)C3)c12` [Example 147, 4-[4-((S)-3-Amino-3-methyl-piperidin-1-ylmethyl)-3-methyl-1H-pyrazolo[3,4-b]pyridin-6-yl]-3-fluoro-phenol] is higher in inhibition at 1.14 µM: 65% for the first, 100% for the second.

Going from `CNC1CCN(Cc2cc(-c3ccc(O)cc3)nc3[nH]nc(C)c23)C1` (centres unmarked) [Example 93, 4-[3-Methyl-4-(3-methylamino-pyrrolidin-1-ylmethyl)-1H-pyrazolo[3,4-b]pyridin-6-yl]-phenol] to `Cc1n[nH]c2nc(-c3ccc(O)cc3)cc(CN3C[C@H](C)NCC3(C)C)c12` [Example 131, 4-[3-Methyl-4-((S)-2,2,5-trimethyl-piperazin-1-ylmethyl)-1H-pyrazolo[3,4-b]pyridin-6-yl]-phenol], the inhibition at 1.14 µM rises from 81% to 103%.

First: CC[C@]1(C)CN(Cc2cc(-c3ccc(O)cc3F)nc3[nH]nc(C)c23)C(C)(C)CN1 [Example 135, 4-[4-((R)-5-Ethyl-2,2,5-trimethyl-piperazin-1-ylmethyl)-3-methyl-1H-pyrazolo[3,4-b]pyridin-6-yl]-3-fluoro-phenol]
Second: Cc1n[nH]c2nc(-c3ccc(O)cc3F)cc(CN3CC(C)(C)NCC3(C)C)c12 [Example 28, 3-Fluoro-4-[3-methyl-4-(2,2,5,5-tetramethyl-piperazin-1-ylmethyl)-1H-pyrazolo[3,4-b]pyridin-6-yl]-phenol]
The inhibition at 1.14 µM of the first is higher: 106% for the first, 97% for the second.

Compared with `Cc1n[nH]c2nc(-c3ccc(O)cc3F)cc(CN3CC(C)(C)NC[C@H]3C(C)C)c12` [Example 134, 3-Fluoro-4-[4-((R)-2-isopropyl-5,5-dimethyl-piperazin-1-ylmethyl)-3-methyl-1H-pyrazolo[3,4-b]pyridin-6-yl]-phenol], `Cc1n[nH]c2nc(-c3ccc(O)cc3F)cc(CN3CC(C)(C)NCC3C(C)C)c12` (centres unmarked) [Example 37, 3-Fluoro-4-[4-(2-isopropyl-5,5-dimethyl-piperazin-1-ylmethyl)-3-methyl-1H pyrazolo[3,4-b]pyridin-6-yl]-phenol] is lower in inhibition at 1.14 µM: 102% for the first, 94% for the second.

First: Cc1n[nH]c2nc(-c3ccc(O)cc3F)cc(CN3CC(C)(C)N(C[C@H](O)CO)CC3(C)C)c12 [Example 73, (S)-3-{4-[6-(2-Fluoro-4-hydroxy-phenyl)-3-methyl-1H-pyrazolo[3,4-b]pyridin-4-ylmethyl]-2,2,5,5-tetramethyl-piperazin-1-yl}-propane-1,2-diol]
Second: Cc1n[nH]c2nc(-c3ccc(O)cc3F)cc(CN3CC(C)(C)OCC3(C)C)c12 [Example 56, 3-Fluoro-4-[3-methyl-4-(2,2,5,5-tetramethyl-morpholin-4-ylmethyl)-1H-pyrazolo[3,4-b]pyridin-6-yl]-phenol]
The inhibition at 1.14 µM of the first is higher: 97% for the first, 85% for the second.

Compared with `Cc1n[nH]c2nc(-c3ccc(O)cc3)cc(CN3CC(C)(C)NC[C@H]3C)c12` [Example 140, 4-[3-Methyl-4-((R)-2,5,5-trimethyl-piperazin-1-ylmethyl)-1H-pyrazolo[3,4-b]pyridin-6-yl]-phenol], `Cc1n[nH]c2nc(-c3ccc(O)cc3F)cc(CN3CC(C)(C)NC[C@H]3C)c12` [Example 123, 3-Fluoro-4-[3-methyl-4-((R)-2,5,5-trimethyl-piperazin-1-ylmethyl)-1H-pyrazolo[3,4-b]pyridin-6-yl]-phenol] is lower in inhibition at 1.14 µM: 98% for the first, 88% for the second.

First: Cc1n[nH]c2nc(-c3ccc(O)cc3F)cc(CN3CCNC[C@H]3c3cccc(F)c3)c12 [Example 120, 3-Fluoro-4-{4-[(R)-2-(3-fluoro-phenyl)-piperazin-1-ylmethyl]-3-methyl-1H-pyrazolo[3,4-b]pyridin-6-yl}-phenol]
Second: Cc1n[nH]c2nc(-c3ccc(O)cc3F)cc(CN3CCNCC3c3cccc(C(F)(F)F)c3)c12 (centres unmarked) [Example 8, 3-Fluoro-4-{3-methyl-4-[2-(3-trifluoromethyl-phenyl)-piperazin-1-ylmethyl]-1H-pyrazolo[3,4-b]pyridin-6-yl}-phenol]
The inhibition at 1.14 µM of the first is higher: 102% for the first, 92% for the second.

Going from `Cc1n[nH]c2nc(-c3ccc(O)cc3F)cc(CN3CCNC[C@H]3c3ccccc3)c12` [Example 110, 3-Fluoro-4-[3-methyl-4-((R)-2-phenyl-piperazin-1-ylmethyl)-1H-pyrazolo[3,4-b]pyridin-6-yl]-phenol] to `Cc1n[nH]c2nc(-c3ccc(O)cc3F)cc(CN3CCNC[C@H]3c3ccc(C(C)C)cc3)c12` [Example 102, 3-Fluoro-4-{4-[(R)-2-(4-isopropyl-phenyl)-piperazin-1-ylmethyl]-3-methyl-1H-pyrazolo[3,4-b]pyridin-6-yl}-phenol], the inhibition at 1.14 µM rises from 42% to 85%.

Going from `Cc1n[nH]c2nc(-c3ccc(O)cc3F)cc(CN3CCNC[C@]3(C)c3ccccc3)c12` [Example 117, 3-Fluoro-4-[3-methyl-4-((S)-2-methyl-2-phenyl-piperazin-1-ylmethyl)-1H-pyrazolo[3,4-b]pyridin-6-yl]-phenol] to `Cc1n[nH]c2nc(-c3ccc(O)cc3F)cc(CN3CCNCC3(C)C)c12` [Example 26, 4-[4-(2,2-Dimethyl-piperazin-1-ylmethyl)-3-methyl-1H-pyrazolo[3,4-b]pyridin-6-yl]-3-fluoro-phenol], the inhibition at 1.14 µM falls from 99% to 92%.

First: Cc1n[nH]c2nc(-c3ccc(O)cc3F)cc(C(C)N3CCNCC3)c12 (centres unmarked) [Example 97, 3-Fluoro-4-[3-methyl-4-(1-piperazin-1-yl-ethyl)-1H-pyrazolo[3,4-b]pyridin-6-yl]-phenol]
Second: CCC1(CC)CNCCN1Cc1cc(-c2ccc(O)cc2F)nc2[nH]nc(C)c12 [Example 18, 4-[4-(2,2-Diethyl-piperazin-1-ylmethyl)-3-methyl-1H-pyrazolo[3,4-b]pyridin-6-yl]-3-fluoro-phenol]
The inhibition at 1.14 µM of the first is lower: 96% for the first, 98% for the second.

Going from `CCC1(C)CNC(C)(C)CN1Cc1cc(-c2ccc(O)cc2F)nc2[nH]nc(C)c12` (centres unmarked) [Example 31, 4-[4-(2-Ethyl-2,5,5-trimethyl-piperazin-1-ylmethyl)-3-methyl-1H-pyrazolo[3,4-b]pyridin-6-yl]-3-fluoro-phenol] to `Cc1n[nH]c2nc(-c3ccc(O)cc3F)cc(CN3CC(C)(C)NCC3(C)C3CC3)c12` (centres unmarked) [Example 34, 4-[4-(2-Cyclopropyl-2,5,5-trimethyl-piperazin-1-ylmethyl)-3-methyl-1H-pyrazolo[3,4-b]pyridin-6-yl]-3-fluoro-phenol], the inhibition at 1.14 µM falls from 101% to 73%.

Going from `Cc1n[nH]c2nc(-c3ccc(O)cc3F)cc(CN3CCNCC3C(F)(F)F)c12` (centres unmarked) [Example 5, 3-Fluoro-4-[3-methyl-4-(2-trifluoromethyl-piperazin-1-ylmethyl)-1H-pyrazolo[3,4-b]pyridin-6-yl]-phenol] to `Cc1n[nH]c2nc(-c3ccc(O)cc3F)cc(CN3CCNC[C@H]3c3ccc(C(F)(F)F)cc3)c12` [Example 104, 3-Fluoro-4-{3-methyl-4-[(R)-2-(4-trifluoromethyl-phenyl)-piperazin-1-ylmethyl]-1H-pyrazolo[3,4-b]pyridin-6-yl}-phenol], the inhibition at 1.14 µM falls from 109% to 83%.

Going from `COC(=O)CN1CC(C)(C)N(Cc2cc(-c3ccc(O)cc3)nc3[nH]nc(C)c23)CC1(C)C` [Example 86, {4-[6-(4-Hydroxy-phenyl)-3-methyl-1H-pyrazolo[3,4-b]pyridin-4-ylmethyl]-2,2,5,5-tetramethyl-piperazin-1-yl}-acetic acid methyl ester] to `Cc1n[nH]c2nc(-c3ccc(O)cc3)cc(CN3CC(C)N(CC4CCCO4)CC3(C)C)c12` (centres unmarked) [Example 62, 4-{3-Methyl-4-[2,2,5-trimethyl-4-(tetrahydro-furan-2-ylmethyl)-piperazin-1-ylmethyl]-1H-pyrazolo[3,4-b]pyridin-6-yl}-phenol], the inhibition at 1.14 µM rises from 86% to 99%.

First: Cc1n[nH]c2nc(-c3ccc(O)cc3)cc(CN3C[C@H](C)NC[C@H]3c3ccccc3)c12 [Example 112, 4-[3-Methyl-4-((2R,5S)-5-methyl-2-phenyl-piperazin-1-ylmethyl)-1H-pyrazolo[3,4-b]pyridin-6-yl]-phenol]
Second: Cc1n[nH]c2nc(-c3ccc(O)cc3F)cc(CN3C[C@@H](c4ccccc4)NC[C@@H]3C)c12 [Example 99, 3-Fluoro-4-[3-methyl-4-((2S,5R)-2-methyl-5-phenyl-piperazin-1-ylmethyl)-1H-pyrazolo[3,4-b]pyridin-6-yl]-phenol]
The inhibition at 1.14 µM of the first is lower: 85% for the first, 92% for the second.

First: Cc1n[nH]c2nc(-c3ccc(O)cc3F)cc(CN3CC4(CCCC4)NCC3C)c12 (centres unmarked) [Example 35, 3-Fluoro-4-[3-methyl-4-(8-methyl-6,9-diaza-spiro[4.5]dec-9-ylmethyl)-1H-pyrazolo[3,4-b]pyridin-6-yl]-phenol]
Second: Cc1n[nH]c2nc(-c3ccc(O)cc3F)cc(CN3CCNC[C@@H]3c3ccc(C(C)C)cc3)c12 [Example 101, 3-Fluoro-4-{4-[(S)-2-(4-isopropyl-phenyl)-piperazin-1-ylmethyl]-3-methyl-1H-pyrazolo[3,4-b]pyridin-6-yl}-phenol]
The inhibition at 1.14 µM of the first is higher: 78% for the first, 52% for the second.

In the case of `Cc1n[nH]c2nc(-c3ccc(O)cc3)cc(CN3CCNCC34CC4)c12` [Example 40, 4-[4-(4,7-Diaza-spiro[2.5]oct-4-ylmethyl)-3-methyl-1H-pyrazolo[3,4-b]pyridin-6-yl]-phenol], the inhibition at 1.14 µM is reported as 97%.

With `Cc1n[nH]c2nc(-c3ccc(O)cc3F)cc(CN3C[C@@H](c4ccccc4)NC[C@@H]3C)c12` (relative stereo) [Example 29, 3-Fluoro-4-[3-methyl-4-(trans-2-methyl-5-phenyl-piperazin-1-ylmethyl)-1H-pyrazolo[3,4-b]pyridin-6-yl]-phenol] the “% Inhibition” value was 90%.
